Source: the supplement of paper PMC10307832

Key:
Test in all cases: relative viability (nuclei count vs DMSO), 5 days (fraction); higher = more cells survive
[1] = compound: CCN(CC)CCNC(=O)c1c(C)[nH]c(/C=C2\C(=O)Nc3ccc(F)cc32)c1C [Sunitinib] + CS(=O)(=O)CCNCc1ccc(-c2ccc3ncnc(Nc4ccc(OCc5cccc(F)c5)c(Cl)c4)c3c2)o1 [Lapatinib] (partner 2 µM)
In short: (§1)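 Each reported value is a median over duplicate plates. It expresses relative viability: treated-well nuclei count divided by vehicle-well nuclei count. Lung cancer cell lines in 1536-well plates were dosed by pin tool a day after seeding, alone with one drug or with a fixed anchor-drug dose plus five library-drug doses (not always all listed) in √10 steps, and nuclei were counted after 5 days.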

[2] = compound: CCN(CC)CCNC(=O)c1c(C)[nH]c(/C=C2\C(=O)Nc3ccc(F)cc32)c1C [Sunitinib] + CCNC(=O)c1noc(-c2cc(C(C)C)c(O)cc2O)c1-c1ccc(CN2CCOCC2)cc1 [Luminespib] (partner 0.01 µM)
In short: as §1

[3] = compound: CCN(CC)CCNC(=O)c1c(C)[nH]c(/C=C2\C(=O)Nc3ccc(F)cc32)c1C [Sunitinib] + O=C(c1cc(Cc2n[nH]c(=O)c3ccccc23)ccc1F)N1CCN(C(=O)C2CC2)CC1 [Olaparib] (partner 8 µM)
In short: as §1

[4] = compound: CCN(CC)CCNC(=O)c1c(C)[nH]c(/C=C2\C(=O)Nc3ccc(F)cc32)c1C [Sunitinib] + Nc1ncn([C@H]2C[C@H](O)[C@@H](CO)O2)c(=O)n1 [Decitabine] (partner 2 µM)
In short: as §1

Cell Line	relative viability ([1]; first compound 0.02 µM)	relative viability ([1]; first compound 0.06325 µM)	relative viability ([1]; first compound 0.2 µM)	relative viability ([1]; first compound 0.6325 µM)	relative viability ([1]; first compound 2 µM)	relative viability ([2]; first compound 0.02 µM)	relative viability ([2]; first compound 0.06325 µM)	relative viability ([2]; first compound 0.2 µM)	relative viability ([2]; first compound 0.6325 µM)	relative viability ([2]; first compound 2 µM)	relative viability ([3]; first compound 0.02 µM)	relative viability ([3]; first compound 0.06325 µM)	relative viability ([3]; first compound 0.2 µM)	relative viability ([3]; first compound 0.6325 µM)	relative viability ([3]; first compound 2 µM)	relative viability ([4]; first compound 0.02 µM)	relative viability ([4]; first compound 0.06325 µM)	relative viability ([4]; first compound 0.2 µM)	relative viability ([4]; first compound 0.6325 µM)	relative viability ([4]; first compound 2 µM)
HARA	0.767	0.813	0.881	0.729	0.801	0.67	0.819	0.536	0.882	0.651	0.718	0.966	0.801	0.786	0.7	0.506	0.604	0.539	0.563	0.586
NCI-H661	0.433	0.453	0.527	0.582	0.448	0.896	0.934	0.949	0.896	0.83	0.716	0.739	0.733	0.711	0.773	0.509	0.578	0.544	0.56	0.597
NCI-H1793	–	0.675	0.828	0.651	0.484	0.19	0.166	0.165	0.191	0.166	–	0.726	1.03	1	0.706	–	0.496	0.487	0.549	0.49
ABC-1	1.18	1.19	1.34	1	1.19	0.407	0.609	0.533	0.622	0.861	0.728	0.919	0.868	1.06	0.966	1.01	0.926	1.07	1.22	0.849
NCI-H596	0.987	1.14	1.22	1.19	1.08	0.884	1.05	1.09	1.03	0.941	0.688	0.678	0.679	0.686	0.651	0.895	0.902	1.16	1.01	0.962
HCC-44	1.06	1	1.09	0.985	–	0.949	1.1	1.5	0.972	1.14	0.958	0.97	0.979	1	1.05	0.931	1.04	0.99	0.951	0.949
NCI-H2023	0.912	1.09	0.998	0.814	0.91	0.602	0.671	1.08	0.765	0.611	0.487	0.485	0.518	0.462	0.465	0.242	0.225	0.247	0.243	0.217
NCI-H2087	–	1.11	1.01	1.26	1.03	0.195	0.172	0.166	0.158	0.174	0.605	0.689	0.822	0.674	0.56	0.273	0.274	0.315	0.245	0.264
LCLC-97TM1	1.06	0.81	–	0.924	–	0.597	0.743	–	0.794	0.772	0.377	0.401	0.548	0.477	0.442	0.232	0.225	0.238	0.212	0.223
NCI-H1734	0.968	1.16	1.35	1.18	1.05	0.166	0.186	0.188	0.149	0.212	0.552	0.618	0.691	0.619	0.539	0.528	0.495	0.514	0.477	0.497
NCI-H1792	0.885	0.952	1.07	0.809	0.923	–	0.38	0.622	0.483	0.426	0.491	0.371	0.98	0.404	0.384	0.457	0.594	0.625	0.527	0.591
H3255	0.231	0.313	0.227	0.259	0.236	0.944	1.03	–	1.05	0.952	0.541	0.605	0.6	0.593	0.56	0.567	0.671	0.607	0.651	0.529
NCI-H2126	0.677	0.781	0.808	0.809	0.807	0.875	0.918	0.897	0.985	0.866	0.924	0.978	0.978	1	0.884	0.589	0.572	0.532	0.592	0.579
COR-L23	0.71	1.18	0.983	1.14	0.951	0.647	0.658	0.881	0.831	0.57	0.317	0.349	0.361	0.385	0.351	0.435	0.482	0.426	0.505	0.451
BEN	0.651	0.754	0.675	0.673	0.618	0.414	0.453	0.396	0.53	0.333	1.02	1.03	1.14	1.08	0.956	0.698	0.766	0.7	0.62	0.715
NCI-H358	0.421	0.6	0.457	0.514	0.377	0.375	0.304	0.564	0.307	0.242	0.452	0.617	0.756	0.666	0.471	0.236	0.217	0.22	0.197	0.192
